Laboratory results taken from PubChem BioAssay (NCI).
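Method: 48-hour compound exposure of cells in 96-well plates, five concentrations, linear interpolation of endpoints. GI50 = concentration required for 50% inhibition of growth. TGI: total growth inhibition.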

Legend:
Test in all cases: growth of human tumour cells (NCI), 48 h
[1] = test system: SK-MEL-28 melanoma
[2] = test system: KM12 colon
[3] = test system: LOX IMVI melanoma
[4] = test system: SNB-75 CNS
[5] = test system: EKVX NSCLC
[6] = test system: SF-295 CNS
[7] = test system: M14 melanoma
[8] = test system: MDA-MB-435
[9] = test system: BT-549 breast
[10] = test system: UO-31 renal
[11] = test system: RPMI-8226 leukemia
[12] = test system: HOP-62 NSCLC
[13] = test system: HCT-15 colon
[14] = test system: SF-268 CNS
[15] = test system: SR leukemia
[16] = test system: NCI-H23 lung
[17] = test system: U251 CNS
[18] = test system: NCI-H522 lung
[19] = test system: UACC-62 melanoma
[20] = test system: HCC-2998 colon
[21] = test system: K-562 leukemia
[22] = test system: HCT-116 colon
[23] = test system: UACC-257 melanoma
[24] = test system: HS 578T breast
[25] = test system: MDA-MB-231 breast
[26] = test system: DU-145 prostate
[27] = test system: SF-539 CNS
[28] = test system: NCI/ADR-RES ovarian
[29] = test system: COLO 205 colon
[30] = test system: 786-0 renal
[31] = test system: CCRF-CEM leukemia
[32] = test system: TK-10 renal
[33] = test system: SW-620 colon
[34] = test system: OVCAR-5 ovarian
[35] = test system: NCI-H226 lung
[36] = test system: SK-MEL-5 melanoma
[37] = test system: RXF 393 renal
[38] = test system: NCI-H460 lung
[39] = test system: MCF7 breast
[40] = test system: A498 renal
[41] = test system: PC-3 prostate
[42] = test system: CAKI-1 renal
[43] = test system: HL-60(TB) leukemia
[44] = test system: MALME-3M melanoma
[45] = test system: OVCAR-8 ovarian
[46] = test system: ACHN renal
[47] = test system: SNB-19 CNS
[48] = test system: HT29 colon
[49] = test system: SK-OV-3 ovarian
[50] = test system: MOLT-4 leukemia
[51] = test system: T-47D breast
[52] = test system: OVCAR-3 ovarian
[53] = test system: OVCAR-4 ovarian
[54] = test system: IGROV1 ovarian
[55] = test system: HOP-92 NSCLC
[56] = test system: SN12C renal
[57] = test system: SK-MEL-2 melanoma
[58] = test system: A549 NSCLC

In the case of `COc1cccc(-n2cnc3c(N/N=C/c4ccncc4)ncnc32)c1`, the GI50 [1] is reported as 13 µM, the TGI [1] is reported as > 25 µM and the GI50 [2] is reported as 7.84 µM. For the same compound, the TGI [2] was > 25 µM, the GI50 [3] was 12.8 µM and the TGI [3] was > 25 µM. The GI50 [4] was 7.45 µM, the TGI [4] was > 25 µM and the GI50 [5] was > 25 µM. The TGI [5] was > 25 µM, the GI50 [6] was > 25 µM and the TGI [6] was > 25 µM. For the same compound, the GI50 [7] was 10.3 µM, the TGI [7] was > 25 µM and the GI50 [8] was 12.4 µM. The TGI [8] was > 25 µM, the GI50 [9] was > 23.8 µM and the TGI [9] was > 25 µM. For the same compound, the GI50 [10] was 8.26 µM, the TGI [10] was > 25 µM and the GI50 [11] was > 25 µM. For the same compound, the TGI [11] was > 25 µM, the GI50 [12] was > 25 µM and the TGI [12] was > 25 µM. For the same compound, the GI50 [13] was 9.83 µM, the TGI [13] was > 25 µM and the GI50 [14] was 24.5 µM. For the same compound, the TGI [14] was > 25 µM, the GI50 [15] was 12.3 µM and the TGI [15] was > 25 µM. For the same compound, the GI50 [16] was > 25 µM, the TGI [16] was > 25 µM and the GI50 [17] was > 25 µM. For the same compound, the TGI [17] was > 25 µM, the GI50 [18] was > 14.6 µM and the TGI [18] was > 25 µM. The GI50 [19] was 8.2 µM, the TGI [19] was > 25 µM and the GI50 [20] was > 25 µM. For the same compound, the TGI [20] was > 25 µM, the GI50 [21] was 10.9 µM and the TGI [21] was > 25 µM. For the same compound, the GI50 [22] was 15.1 µM, the TGI [22] was > 25 µM and the GI50 [23] was > 19.7 µM. The TGI [23] was > 25 µM, the GI50 [24] was 7.47 µM and the TGI [24] was > 25 µM. The GI50 [25] was > 20.3 µM, the TGI [25] was > 25 µM and the GI50 [26] was 17.3 µM. For the same compound, the TGI [26] was > 25 µM, the GI50 [27] was > 18.9 µM and the TGI [27] was > 25 µM. The GI50 [28] was > 25 µM, the TGI [28] was > 25 µM and the GI50 [29] was 11.4 µM. For the same compound, the TGI [29] was > 25 µM, the GI50 [30] was 19.5 µM and the TGI [30] was > 25 µM. For the same compound, the GI50 [31] was > 25 µM, the TGI [31] was > 25 µM and the GI50 [32] was 9.59 µM. For the same compound, the TGI [32] was > 25 µM, the GI50 [33] was > 25 µM and the TGI [33] was > 25 µM. For the same compound, the GI50 [34] was > 25 µM, the TGI [34] was > 25 µM and the GI50 [35] was > 23.9 µM. The TGI [35] was > 25 µM, the GI50 [36] was 10.5 µM and the TGI [36] was > 25 µM. For the same compound, the GI50 [37] was 6.42 µM, the TGI [37] was > 25 µM and the GI50 [38] was 13.6 µM. For the same compound, the TGI [38] was > 25 µM, the GI50 [39] was > 25 µM and the TGI [39] was > 25 µM. For the same compound, the GI50 [40] was 7.1 µM, the TGI [40] was > 23.2 µM and the GI50 [41] was > 25 µM. For the same compound, the TGI [41] was > 25 µM, the GI50 [42] was 7.34 µM and the TGI [42] was > 25 µM. The GI50 [43] was > 25 µM, the TGI [43] was > 25 µM and the GI50 [44] was 10.2 µM. The TGI [44] was > 25 µM, the GI50 [45] was > 20.6 µM and the TGI [45] was > 25 µM. The GI50 [46] was 9.06 µM, the TGI [46] was > 25 µM and the GI50 [47] was > 25 µM. The TGI [47] was > 25 µM, the GI50 [48] was 8.07 µM and the TGI [48] was > 25 µM. For the same compound, the GI50 [49] was 7.88 µM, the TGI [49] was > 23.7 µM and the GI50 [50] was > 25 µM. The TGI [50] was > 25 µM, the GI50 [51] was 11.2 µM and the TGI [51] was > 25 µM. The GI50 [52] was > 20.8 µM, the TGI [52] was > 25 µM and the GI50 [53] was 11.6 µM. For the same compound, the TGI [53] was > 25 µM, the GI50 [54] was 8.65 µM and the TGI [54] was > 25 µM. For the same compound, the GI50 [55] was > 10.4 µM, the TGI [55] was > 25 µM and the GI50 [56] was 13.2 µM. The TGI [56] was > 25 µM, the GI50 [57] was 11.6 µM and the TGI [57] was > 25 µM. For the same compound, the GI50 [58] was 17.6 µM and the TGI [58] was > 25 µM.
